Assay results reported in patent US20240376097A1, “BCL-2 Inhibitor” (BeiGene Ltd., priority 2020, published 2024).
Read-outs that look alike come from different tables or passages of the source.

Key:
[1] = target: recombinant human Bcl-2 D103Y protein (Homo sapiens (Human), UniProt P10415, D103Y); experiment: Bcl-2-D103Y Biochemical Assay (TR-FRET); format: binding
Procedure: Biological Example: Bcl-2-D103Y Biochemical Assay
[…]. The TR-FRET signals (ex337 nm, em490 nm/520 nm) were read on BMG PHERAstar FSX instrument. The inhibition percentage of Bcl-2 D103Y interaction with its ligand in presence of increasing concentrations of compounds was calculated based on the ratio of fluorescence at 490 nm to that at 520 nm. The IC50 for each compound was derived from fitting the data to the four-parameter logistic equation by Dotmatics.

[2] = test system: BCL-2 G101V knock-in cell line H96 (derive from RS4;11); experiment: Bcl 2-G101V Knock-In RS4;11 Cell Proliferation Assay; format: cell-based; details: RS4;11 Bcl-2 G101V knock-in clone H96, 48 hrs, CellTiter-GLO, read-out: Cellular proliferation assay (IC50, nM) RS4
Procedure: Biological Example: Bcl 2-G101V Knock-In RS4;11 Cell Proliferation Assay
(1) RS4;11 H96 Bcl 2-G101V Knock-In Cell Line Generation
Briefly, RS4;11 BCL2-G101V knock-in cell pool was generated using Crisper/Cas9 gene editing system and the BCL2-G101V knock-in single clone H96 was picked from the knock-in cell pool and validated by WES (whole exome-sequencing) and RNA-seq.
The BCL-2 dependent acute lymphoblastic leukemia (ALL) cell line, RS4;11(ATCC, CRL-1873), was cultured in RPMI-1640 complete medium (RPMI-1640 medium, HEPES (Gibco, 22400-105) supplemented with 10% fetal bovine serum (FBS) (Gibco, 10099-1441), 100 unit/ml penicillin and 100 μg/ml streptomycin (Gibco, 15140122)) and maintained in a humidified chamber at 37° C. containing 5% CO2.
To obtain BCL2-G101V knock-in cell pool, RS4;11 was co-transfected with the Cas9-gRNA which also expressed GFP label, and the Donor gene which contained the BCL2-G101V mutant sequence. After 48 hrs of electroporation, the GFP positive cells were collected through FACSAriaIII cell sorting system. Cell pool was recovered for 3 days and then cultured under 2 nM ABT-199 stress for 4 weeks. […] Then cells were plated in 96 well U-plate with 1 cell/well for 10000 wells for single clone selection. After 3-5 weeks growing, clones were successively screened by PCR sequencing. And three BCL2-G101V knock-in clones: H96, H142 and H233, have been picked out.
Three clones were validated by genome DNA and cDNA(mRNA) PCR sequencing, and BCL-2, BCL-xL and MCL-1 expression using Western Blot. The H96 clone was also validated by WES (whole exome-sequencing) and RNA-seq.
(2) Bcl 2-G101V Knock-In RS4;11 Cell Proliferation Assay
The BCL-2 G101V knock-in cell line H96 (derive from RS4;11) were used to study the cellular potency of BCL-2 inhibitors. The cells were cultured in RPMI-1640 complete medium (RPMI-1640 medium, HEPES (Gibco, 22400-105) supplemented with 10% fetal bovine serum (FBS) (Gibco, 10099-1441), 100 unit/ml penicillin and 100 μg/ml streptomycin (Gibco, 15140122)) and maintained in a humidified chamber at 37° C. containing 5% CO2. Each compound was serially diluted with 1 μM or 10 μM as the maximum concentration. To test the apoptotic effect of the compounds, the cells were seeded at 50,000 in 90 μl per well in 96-well plates and treated with 10-point dilution series of each compound for 48 hrs at 37° C. Cell viability was assessed after the treatment using CellTiter-GLO luminescent assay (Promega) according to the manufacturer's recommendations. Briefly, 30 μl of CellTiter-GLO reagent was added into 100 μl of cell culture. Mixture was agitated on an orbital shaker for 5 min to ensure cell lysis followed by 7 min incubation at room temperature to allow development and stabilization of luminescent signals, which corresponded to the quantity of ATP and thus the quantity of metabolically active cells. Luminescent signals were measured using PHERAstar FS reader (BMG). Mean IC50 values were determined with GraphPad Prism software.

[3] = test system: RS4;11 (BCL-2 dependent acute lymphoblastic leukemia cell line); experiment: RS4;11 Cell Proliferation Assay; format: cell-based; details: read-out: Cellular proliferation assay (IC50, nM) RS4
Procedure: Biological Example: RS4;11 Cell Proliferation Assay
The BCL-2 dependent acute lymphoblastic leukemia (ALL) cell line, RS4;11, was used to study the cellular potency of BCL-2 inhibitors. The cells (ATCC, CRL-1873) were cultured in RPMI-1640 complete medium (RPMI-1640 medium, HEPES (Gibco, 22400-105) supplemented with 10% fetal bovine serum (FBS) (Gibco, 10099-1441), 100 unit/ml penicillin and 100 μg/ml streptomycin (Gibco, 15140122)) and maintained in a humidified chamber at 37° C. containing 5% CO2. Each compound was serially diluted with 1 μM as the maximum concentration. To test the apoptotic effect of the compounds, the cells were seeded at 50,000 in 180 μl per well in 96-well plates and treated with 10-point dilution series of each compound for 48 hrs at 37° C. Cell viability was assessed after the treatment using CellTiter-GLO luminescent assay (Promega) according to the manufacturer's recommendations. Briefly, 30 μl of CellTiter-GLO reagent was added into 200 μl of cell culture. Mixture was agitated on an orbital shaker for 5 min to ensure cell lysis followed by 7 min incubation at room temperature to allow development and stabilization of luminescent signals, which corresponded to the quantity of ATP and thus the quantity of metabolically active cells. Luminescent signals were measured using PHERAstar FS reader (BMG). Mean IC50 values were determined with GraphPad Prism software.

[4] = test system: recombinant human Bcl-2-G101V protein; experiment: Bcl-2-G101V TR-FRET Assay; format: binding; details: ratio of biochemical IC50 Bcl-2 G101V / Bcl-2 WT
Procedure, shortened: (§1)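 Ex337/em490 & 520 nm TR-FRET; % inhibition of Bcl-2-G101V–ligand interaction from 490:520 ratio vs. increasing compound conc.; IC50 by 4-parameter logistic fit.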

[5] = target: Recombinant human Bcl-2 protein (Homo sapiens (Human), UniProt P10415); experiment: Bcl-2 TR-FRET Assay; format: binding
Procedure, shortened: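 0.05 nM recombinant Bcl-2 preincubated 0.5 h at room temperature with 10-point compound dilutions (top final 1, 0.1, 0.02 or 0.01 uM) in pH 7.5 phosphate buffer. FITC-Bak peptide (0.5 nM) and anti-6His Tb cryptate then added for 1 h. TR-FRET read; IC50 from four-parameter logistic fit.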

[6] = target: recombinant human Bcl-2-G101V protein (Homo sapiens (Human), UniProt P10415, G101V); experiment: Bcl-2-G101V TR-FRET Assay; format: binding; details: Bcl-2 G101V mutant, TR-FRET; read-out: Biochemical assay (IC50, nM) Bcl-2 G101V
Procedure, shortened: as §1

[7] = Homo sapiens, RS4-11, RS4;11 cells
[8] = Bcl-2 wild type, TR-FRET, read-out: Biochemical assay (IC50, nM) Bcl-2 WT

Compound	Ratio of Bcl-2 D103Y/Bcl-2 WT ([1]; ratio of IC50)	IC50 [2] [nM]	IC50 ([3]; RS4;11 cells) [nM]	Ratio of Bcl-2 G101V/WT [4]	IC50 ([2]; Homo sapiens) [nM]	IC50 [3, 7] [nM]	IC50 [5, 8] [nM]	IC50 [6] [nM]	IC50 ([1]; TR-FRET, FITC labeled Bak peptide) [nM]	IC50 ([5]; wild type Bcl-2, unit inferred, read-out: Bcl-2 WT) [nM]
2-((1H-pyrrolo[2,3-b]pyridin-5-yl)oxy)-N-((4-((((1r,4r)-4-bydroxy-4-methylcyclohexyl)methyl)amino)-3-nitrophenyl)sulfonyl)-4-(2-((R or S)-2-(2-isopropylphenyl)-4-(2-methoxyethyl)piperazin-1-yl)-7-azaspiro[3.5]nonan-7-yl)benzamide [Example 13b]	12	2.81	0.32	22.1						
CC(C)c1ccccc1[C@H]1CN(C(C)C)CCN1C1CC2(CCN(c3ccc(C(=O)NS(=O)(=O)c4ccc(NC[C@H]5CC[C@](C)(O)CC5)c([N+](=O)[O-])c4)c(Oc4cnc5[nH]ccc5c4)c3)CC2)C1 (single isomer, unassigned) [Example 3a, 2-((1H-pyrrolo[2,3-b]pyridin-5-yl)oxy)-N-((4-((((1r,4r)-4-hydroxy-4-methylcyclohexyl)methyl)amino)-3-nitrophenyl)sulfonyl)-4-(2-((S or R)-4-isopropyl-2-(2-isopropylphenyl)piperazin-1-yl)-7-azaspiro[3.5]nonan-7-yl)benzamide]				64.7	35.1	3.67	0.034	2.2		
CC(C)c1ccccc1[C@@H]1CN(C2CC2)CCN1C1CC2(CCN(c3ccc(C(=O)NS(=O)(=O)c4ccc(NC[C@H]5CC[C@](C)(O)CC5)c([N+](=O)[O-])c4)c(Oc4cnc5[nH]ccc5c4)c3)CC2)C1 (single isomer, unassigned) [Example 4, 2-((1H-pyrrolo[2,3-b]pyridin-5-yl)oxy)-4-(2-((R or S)-4-cyclopropyl-2-(2-isopropylphenyl)piperazin-1-yl)-7-azaspir[3.5]nonan-7-yl)-N-((4-((((1r,4r)-4-hydroxy-4-methylcyclohexyl)methyl)amino)-3-nitrophenyl)sulfonyl)benzamide]				35.6	9.56	0.87	0.045	1.6		
COCCN1CCN(C2CC3(CCN(c4ccc(C(=O)NS(=O)(=O)c5ccc(NC[C@H]6CC[C@](C)(O)CC6)c([N+](=O)[O-])c5)c(Oc5cnc6[nH]ccc6c5)c4)CC3)C2)[C@@H](c2ccccc2C(C)C)C1 (single isomer, unassigned) [Example 13a, 2-((1H-pyrrolo[2,3-b]pyridin-5-yl)oxy)-N-((4-((((1r,4r)-4-hydroxy-4-methylcyclohexyl)methyl)amino)-3-nitrophenyl)sulfonyl)-4-(2-((S or R)-2-(2-isopropylphenyl)-4-(2-methoxyethyl)piperazin-1-yl)-7-azaspiro[3.5]nonan-7-yl)benzamide]				94.7	87.4	10.5	0.038	3.6		
CC(C)c1ccccc1C1CN(Cc2cnn(C)c2)CCN1C1CC2(CCN(c3ccc(C(=O)NS(=O)(=O)c4ccc(NC[C@H]5CC[C@](C)(O)CC5)c([N+](=O)[O-])c4)c(Oc4cnc5[nH]ccc5c4)c3)CC2)C1 (single isomer, unassigned) [Example 22a, 2-((1H-pyrrolo[2,3-b]pyridin-5-yl)oxy)-N-((4-((((1r,4r)-4-hydroxy-4-methylcyclohexyl)methyl)amino)-3-nitrophenyl)sulfonyl)-4-(2-((R or S)-2-(2-isopropylphenyl)-4-((1-methyl-1H-pyrazol-4-yl)methyl)piperazin-1-yl)-7-azaspiro [3.5]nonan-7-yl)benzamide]					1.35	0.25	0.0079	0.064	0.041	0.0079
CC(C)c1ccccc1[C@@H]1CN(Cc2cnn(C)c2)CCN1C1CC2(CCN(c3ccc(C(=O)NS(=O)(=O)c4ccc(NC[C@H]5CC[C@](C)(O)CC5)c([N+](=O)[O-])c4)c(Oc4cnc5[nH]ccc5c4)c3)CC2)C1 (single isomer, unassigned) [Example 22b, 2-((1H-pyrrolo[2,3-b]pyridin-5-yl)oxy)-N-((4-((((1r,4r)-4-hydroxy-4-methylcyclohexyl)methyl)amino)-3-nitrophenyl)sulfonyl)-4-(2-((S or R)-2-(2-isopropylphenyl)-4-((1-methyl-1H-pyrazol-4-yl)methyl)piperazin-1-yl)-7-azaspiro[3.5]nonan-7-yl)benzamide]				50.0	57.3	7.6	0.038	1.9		
CC(C)c1ccccc1[C@@H]1CN(Cc2cccc3c2OCCO3)CCN1C1CC2(CCN(c3ccc(C(=O)NS(=O)(=O)c4ccc(NC[C@H]5CC[C@](C)(O)CC5)c([N+](=O)[O-])c4)c(Oc4cnc5[nH]ccc5c4)c3)CC2)C1 [Example 79b, 2-((1H-pyrrolo[2,3-b]pyridin-5-yl)oxy)-4-(2-(S-4-((2,3-dihydrobenzo [b][1,4]dioxin-5-yl)methyl)-2-(2-isopropylphenyl)piperazin-1-yl)-7-azaspiro[3.5]nonan-7-yl)-N-((4-((((1r,4r)-4-hydroxy-4-methylcyclohexyl)methyl)amino)-3-nitrophenyl)sulfonyl)benzamide]					0.68	0.16	0.33	19		
